# Experimental data as given in article PMC9072249 (Acta Pharmaceutica Sinica. B, 2021).
# System: SD rat with neuropathic pain model induced by spared nerve injury (SNI)
# Test: Neuropathic pain model induced by spared nerve injury
# Assay type: in vivo
# Settings: SNI SD rats, po BID, 60 mg/kg/day, 20 days
smiles,measurement,value
NCC1(CC(=O)O)CCCCC1 [gabapentin],course of efficacy over the study,gradually reduced
